Experiments:
[1] = target: Proto-oncogene tyrosine-protein kinase Src (Homo sapiens, UniProt P12931); assay: Inhibition of human GST-fused Src-mediated Poly Glu4Tyr phosphorylation by ELISA
cells = conditions: Homo sapiens, HF1, 48 h
Description: Growth inhibition of human HF1 cells transfected with HPV16 after 48 hrs by micro culture methylene blue assay

Keratinocyte = assay: cells; conditions: Homo sapiens, 72 h
Description: Growth inhibition of human primary keratinocytes after 72 hrs by micro culture methylene blue assay

Chain of Proto-oncogene tyrosine-protein kinase Src (P12931 2-536 limits assumed): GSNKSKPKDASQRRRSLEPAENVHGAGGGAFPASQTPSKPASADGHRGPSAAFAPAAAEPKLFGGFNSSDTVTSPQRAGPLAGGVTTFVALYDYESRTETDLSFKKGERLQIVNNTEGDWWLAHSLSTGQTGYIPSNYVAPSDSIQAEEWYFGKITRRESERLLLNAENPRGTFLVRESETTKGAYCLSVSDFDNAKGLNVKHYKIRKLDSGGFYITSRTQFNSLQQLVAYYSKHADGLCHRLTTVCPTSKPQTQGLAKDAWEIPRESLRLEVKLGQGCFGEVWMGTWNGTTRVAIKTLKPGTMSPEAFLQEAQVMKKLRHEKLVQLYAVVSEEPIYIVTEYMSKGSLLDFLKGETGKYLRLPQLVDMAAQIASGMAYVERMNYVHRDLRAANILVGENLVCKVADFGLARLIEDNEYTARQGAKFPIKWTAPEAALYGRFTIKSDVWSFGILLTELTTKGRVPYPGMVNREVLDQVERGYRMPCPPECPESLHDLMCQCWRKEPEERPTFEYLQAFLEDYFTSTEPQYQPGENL

| Structure (SMILES) | IC50 [1] | IC50 (cells) | IC50 (Keratinocyte) |
| --- | --- | --- | --- |
| Oc1ccc(CNc2ccc3c(c2)OCO3)cc1O | 1.86 µM | 170 µM | 73 µM |
| Oc1ccc(CN(Cc2ccc(O)c(O)c2)c2ccc3c(c2)OCO3)cc1O | 0.83 µM | 106 µM | 18 µM |
| N#C/C(=C\c1ccc(O)c(O)c1)C(=O)c1ccc(O)c(O)c1 | – | 390 µM | – |

From ChEMBL document CHEMBL1240326, “ATP non-competitive IGF-1 receptor kinase inhibitors as lead anti-neoplastic and anti-papilloma agents” (Eur J Pharmacol, 2007)
